Results taken from ChEMBL document CHEMBL5465560, “Selectivity Literature for EUbOPEN Chemogenomic Library” (2024).

Experiments:
[1] = molecular target: Serine/threonine-protein kinase VRK2 (Homo sapiens) (UniProt Q86Y07); experiment: Selectivity interaction (KinomeScan (DiscoverX)) EUB0000229b VRK2; conditions: at 10 µM
[2] = molecular target: Homeodomain-interacting protein kinase 2 (Homo sapiens, UniProt Q9H2X6); experiment: Selectivity interaction (KinomeScan (DiscoverX)) EUB0000655a HIPK2; conditions: at 10 µM
OATP1B1 (SLCO1B1) = OATP1B1 (SLCO1B1) (Homo sapiens, UniProt Q9Y6L6); experiment: Selectivity interaction (Panel of kinases, GPCRs, ion channels and transporters (enzymatic assay)) EUB0000266bCl SLCO1B1; conditions: not told
[3] = molecular target: Cyclin-dependent kinase-like 3 (Homo sapiens) (UniProt Q8IVW4); experiment: Selectivity interaction (KinomeScan (DiscoverX)) EUB0001079a CDKL3; conditions: at 1 µM
[4] = test system: ALK tyrosine kinase receptor (Homo sapiens), Q9UM73 [L1196M]; experiment: (§1) Selectivity interaction (KinomeScan (DiscoverX)) EUB0001079a ALK; conditions: at 1 µM
[5] = test system: ALK tyrosine kinase receptor (Homo sapiens), Q9UM73 [C1156Y]; experiment: as §1; conditions: at 1 µM
[6] = molecular target: T1, ALK tyrosine kinase receptor (Homo sapiens, UniProt Q9UM73); experiment: as §1; conditions: at 1 µM
[7] = molecular target: Phosphatidylinositol 4,5-bisphosphate 3-kinase catalytic subunit beta isoform (Homo sapiens) (UniProt P42338); experiment: Selectivity interaction (KinomeScan (DiscoverX)) EUB0000877a PIK3CB; conditions: at 10 µM
[8] = molecular target: T1, ALK tyrosine kinase receptor; experiment: Selectivity interaction (KinaseProfiler screening (Millipore)) EUB0000601a ALK; conditions: at 3 µM
[9] = molecular target: Histone acetyltransferase p300 (Homo sapiens) (UniProt Q09472); experiment: Selectivity interaction (Transferase panel (protein, RNA, and DNA methyltransferases. and EP300 (acetyltransferase))) EUB0000270b EP300
[10] = molecular target: T2, Protein kinase C iota type (Homo sapiens) (UniProt P41743); experiment: Selectivity interaction (Kinase panel (Invitrogen)) EUB0000639a PRKCI; conditions: at 200 nM
T2 sequence (whole entry): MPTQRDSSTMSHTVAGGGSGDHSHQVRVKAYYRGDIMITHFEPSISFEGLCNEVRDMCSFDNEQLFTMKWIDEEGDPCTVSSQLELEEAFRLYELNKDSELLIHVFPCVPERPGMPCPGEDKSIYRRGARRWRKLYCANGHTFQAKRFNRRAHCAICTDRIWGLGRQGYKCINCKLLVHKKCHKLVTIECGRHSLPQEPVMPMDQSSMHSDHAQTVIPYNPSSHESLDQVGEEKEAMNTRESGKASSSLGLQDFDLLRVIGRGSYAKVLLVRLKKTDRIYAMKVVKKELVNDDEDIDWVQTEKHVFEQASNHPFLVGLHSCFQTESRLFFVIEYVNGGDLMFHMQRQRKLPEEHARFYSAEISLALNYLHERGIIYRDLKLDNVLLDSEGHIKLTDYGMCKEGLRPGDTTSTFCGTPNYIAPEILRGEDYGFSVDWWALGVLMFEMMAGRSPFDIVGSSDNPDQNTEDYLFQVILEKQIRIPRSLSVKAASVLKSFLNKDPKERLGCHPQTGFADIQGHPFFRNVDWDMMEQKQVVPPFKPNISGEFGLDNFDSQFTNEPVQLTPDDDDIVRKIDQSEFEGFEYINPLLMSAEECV

[11] = molecular target: Vascular endothelial growth factor receptor 3 (Homo sapiens, UniProt P35916); experiment: Selectivity interaction (SelectScreen profiling (Invitrogen)) EUB0000607a FLT4; conditions: at 2 µM
[12] = molecular target: Ephrin type-A receptor 7 (Homo sapiens) (UniProt Q15375); experiment: Selectivity interaction (KinomeScan (DiscoverX)) EUB0000607a EPHA7; conditions: at 10 µM
[13] = molecular target: Tyrosine-protein kinase Fyn (Homo sapiens) (UniProt P06241); experiment: Selectivity interaction (SelectScreen profiling (Invitrogen)) EUB0000607a FYN; conditions: at 2 µM
[14] = molecular target: T3, Interleukin-1 receptor-associated kinase 4 (Homo sapiens) (UniProt Q9NWZ3); experiment: Selectivity interaction (KinomeScan (DiscoverX)) EUB0001049a IRAK4; conditions: at 1 µM
T3 sequence (whole entry): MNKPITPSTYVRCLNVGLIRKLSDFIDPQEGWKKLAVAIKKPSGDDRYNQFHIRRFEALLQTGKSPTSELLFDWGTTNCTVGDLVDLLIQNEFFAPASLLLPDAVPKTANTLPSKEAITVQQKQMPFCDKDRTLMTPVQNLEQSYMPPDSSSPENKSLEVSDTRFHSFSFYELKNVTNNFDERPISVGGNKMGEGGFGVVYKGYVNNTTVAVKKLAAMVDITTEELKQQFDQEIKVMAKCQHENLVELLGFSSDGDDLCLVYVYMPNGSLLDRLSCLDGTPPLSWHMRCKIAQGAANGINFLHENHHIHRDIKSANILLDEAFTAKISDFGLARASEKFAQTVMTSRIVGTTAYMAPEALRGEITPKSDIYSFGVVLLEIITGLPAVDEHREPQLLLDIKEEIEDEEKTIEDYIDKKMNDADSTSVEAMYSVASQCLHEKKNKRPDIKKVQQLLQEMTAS

[15] = molecular target: T4, Receptor-interacting serine/threonine-protein kinase 1 (Homo sapiens) (UniProt Q13546); experiment: Selectivity interaction (Ambit KINOMEscan and KiNATiv profiling in Jurkat cells) EUB0000090b RIPK1; type: cell-based; conditions: at 1 µM
T4 sequence (whole entry): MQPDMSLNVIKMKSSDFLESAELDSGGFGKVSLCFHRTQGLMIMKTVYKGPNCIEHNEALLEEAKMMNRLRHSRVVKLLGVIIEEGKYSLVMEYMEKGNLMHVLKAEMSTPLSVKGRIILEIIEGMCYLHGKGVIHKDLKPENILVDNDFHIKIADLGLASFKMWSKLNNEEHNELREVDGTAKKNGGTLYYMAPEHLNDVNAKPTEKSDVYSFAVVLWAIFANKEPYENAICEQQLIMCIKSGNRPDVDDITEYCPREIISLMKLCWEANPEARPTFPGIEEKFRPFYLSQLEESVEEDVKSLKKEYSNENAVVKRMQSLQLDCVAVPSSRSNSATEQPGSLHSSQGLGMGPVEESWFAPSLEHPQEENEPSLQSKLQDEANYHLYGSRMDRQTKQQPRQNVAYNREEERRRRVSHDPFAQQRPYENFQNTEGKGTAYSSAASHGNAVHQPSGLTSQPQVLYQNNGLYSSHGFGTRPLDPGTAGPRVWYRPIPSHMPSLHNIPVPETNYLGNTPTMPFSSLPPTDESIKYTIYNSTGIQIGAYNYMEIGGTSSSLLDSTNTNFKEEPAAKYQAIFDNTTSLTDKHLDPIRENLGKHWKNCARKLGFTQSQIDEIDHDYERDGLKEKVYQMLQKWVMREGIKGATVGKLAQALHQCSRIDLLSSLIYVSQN

Chain of Histone acetyltransferase p300 (Homo sapiens) (Q09472 whole entry): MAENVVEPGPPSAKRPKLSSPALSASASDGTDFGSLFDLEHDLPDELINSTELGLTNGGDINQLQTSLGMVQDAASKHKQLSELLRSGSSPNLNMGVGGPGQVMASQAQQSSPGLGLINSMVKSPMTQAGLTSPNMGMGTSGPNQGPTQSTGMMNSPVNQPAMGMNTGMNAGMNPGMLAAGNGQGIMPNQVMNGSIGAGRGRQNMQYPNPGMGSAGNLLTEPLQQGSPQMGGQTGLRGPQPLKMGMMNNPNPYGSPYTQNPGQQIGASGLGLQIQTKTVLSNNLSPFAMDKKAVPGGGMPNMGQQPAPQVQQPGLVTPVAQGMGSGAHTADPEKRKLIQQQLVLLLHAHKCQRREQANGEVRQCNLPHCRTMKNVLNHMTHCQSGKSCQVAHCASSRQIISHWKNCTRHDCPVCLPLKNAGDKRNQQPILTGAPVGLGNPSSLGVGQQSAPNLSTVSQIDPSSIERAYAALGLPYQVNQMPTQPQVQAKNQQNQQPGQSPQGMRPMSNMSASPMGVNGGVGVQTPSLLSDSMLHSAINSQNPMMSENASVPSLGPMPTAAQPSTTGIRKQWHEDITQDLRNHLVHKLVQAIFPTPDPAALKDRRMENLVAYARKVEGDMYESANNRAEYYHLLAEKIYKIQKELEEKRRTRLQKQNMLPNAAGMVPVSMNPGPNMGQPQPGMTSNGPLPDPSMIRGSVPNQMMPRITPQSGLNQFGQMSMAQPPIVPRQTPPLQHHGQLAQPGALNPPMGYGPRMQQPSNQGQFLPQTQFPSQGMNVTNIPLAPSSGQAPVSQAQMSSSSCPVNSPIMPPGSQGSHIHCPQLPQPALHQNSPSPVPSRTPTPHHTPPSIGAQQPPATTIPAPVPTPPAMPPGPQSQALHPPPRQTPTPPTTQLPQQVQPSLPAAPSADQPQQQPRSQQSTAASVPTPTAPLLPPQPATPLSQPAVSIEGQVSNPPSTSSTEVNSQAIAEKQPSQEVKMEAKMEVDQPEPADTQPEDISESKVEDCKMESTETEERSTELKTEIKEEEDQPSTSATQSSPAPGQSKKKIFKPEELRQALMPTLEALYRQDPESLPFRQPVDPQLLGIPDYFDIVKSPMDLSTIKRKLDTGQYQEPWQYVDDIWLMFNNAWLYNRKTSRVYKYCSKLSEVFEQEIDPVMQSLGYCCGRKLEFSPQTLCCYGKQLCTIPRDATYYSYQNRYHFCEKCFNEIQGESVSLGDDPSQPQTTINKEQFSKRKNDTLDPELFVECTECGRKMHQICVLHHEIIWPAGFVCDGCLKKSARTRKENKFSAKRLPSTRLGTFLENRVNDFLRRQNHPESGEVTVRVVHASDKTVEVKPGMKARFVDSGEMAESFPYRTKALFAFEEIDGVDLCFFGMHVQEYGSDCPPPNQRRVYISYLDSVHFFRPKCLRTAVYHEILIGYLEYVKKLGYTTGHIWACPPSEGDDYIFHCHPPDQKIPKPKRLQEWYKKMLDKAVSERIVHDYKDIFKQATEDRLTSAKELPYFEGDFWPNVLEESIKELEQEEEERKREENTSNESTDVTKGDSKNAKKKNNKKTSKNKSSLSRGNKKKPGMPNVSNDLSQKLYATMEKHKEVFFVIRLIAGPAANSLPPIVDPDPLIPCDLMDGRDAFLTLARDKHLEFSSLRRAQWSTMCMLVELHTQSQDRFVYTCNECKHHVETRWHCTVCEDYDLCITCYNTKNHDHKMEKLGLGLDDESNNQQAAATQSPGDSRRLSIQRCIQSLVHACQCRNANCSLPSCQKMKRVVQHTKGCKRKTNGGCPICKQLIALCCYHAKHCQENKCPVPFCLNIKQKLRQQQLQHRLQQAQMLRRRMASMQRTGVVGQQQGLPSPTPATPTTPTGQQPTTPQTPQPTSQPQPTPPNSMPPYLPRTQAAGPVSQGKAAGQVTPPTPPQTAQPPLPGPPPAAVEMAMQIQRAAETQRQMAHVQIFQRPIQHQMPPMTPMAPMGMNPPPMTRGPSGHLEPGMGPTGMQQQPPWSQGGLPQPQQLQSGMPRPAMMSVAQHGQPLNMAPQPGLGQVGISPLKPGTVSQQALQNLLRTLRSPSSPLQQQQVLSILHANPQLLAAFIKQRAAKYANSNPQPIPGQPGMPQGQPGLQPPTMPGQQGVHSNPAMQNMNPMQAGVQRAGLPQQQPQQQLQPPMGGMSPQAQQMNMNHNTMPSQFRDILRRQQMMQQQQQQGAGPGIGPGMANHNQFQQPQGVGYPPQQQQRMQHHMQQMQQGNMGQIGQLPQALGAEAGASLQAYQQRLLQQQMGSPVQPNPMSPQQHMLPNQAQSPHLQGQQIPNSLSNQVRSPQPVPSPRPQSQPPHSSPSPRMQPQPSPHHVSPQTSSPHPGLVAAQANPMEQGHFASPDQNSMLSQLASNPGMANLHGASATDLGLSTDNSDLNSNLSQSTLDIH
T1 sequence (Q9UM73 19-1620 limits assumed): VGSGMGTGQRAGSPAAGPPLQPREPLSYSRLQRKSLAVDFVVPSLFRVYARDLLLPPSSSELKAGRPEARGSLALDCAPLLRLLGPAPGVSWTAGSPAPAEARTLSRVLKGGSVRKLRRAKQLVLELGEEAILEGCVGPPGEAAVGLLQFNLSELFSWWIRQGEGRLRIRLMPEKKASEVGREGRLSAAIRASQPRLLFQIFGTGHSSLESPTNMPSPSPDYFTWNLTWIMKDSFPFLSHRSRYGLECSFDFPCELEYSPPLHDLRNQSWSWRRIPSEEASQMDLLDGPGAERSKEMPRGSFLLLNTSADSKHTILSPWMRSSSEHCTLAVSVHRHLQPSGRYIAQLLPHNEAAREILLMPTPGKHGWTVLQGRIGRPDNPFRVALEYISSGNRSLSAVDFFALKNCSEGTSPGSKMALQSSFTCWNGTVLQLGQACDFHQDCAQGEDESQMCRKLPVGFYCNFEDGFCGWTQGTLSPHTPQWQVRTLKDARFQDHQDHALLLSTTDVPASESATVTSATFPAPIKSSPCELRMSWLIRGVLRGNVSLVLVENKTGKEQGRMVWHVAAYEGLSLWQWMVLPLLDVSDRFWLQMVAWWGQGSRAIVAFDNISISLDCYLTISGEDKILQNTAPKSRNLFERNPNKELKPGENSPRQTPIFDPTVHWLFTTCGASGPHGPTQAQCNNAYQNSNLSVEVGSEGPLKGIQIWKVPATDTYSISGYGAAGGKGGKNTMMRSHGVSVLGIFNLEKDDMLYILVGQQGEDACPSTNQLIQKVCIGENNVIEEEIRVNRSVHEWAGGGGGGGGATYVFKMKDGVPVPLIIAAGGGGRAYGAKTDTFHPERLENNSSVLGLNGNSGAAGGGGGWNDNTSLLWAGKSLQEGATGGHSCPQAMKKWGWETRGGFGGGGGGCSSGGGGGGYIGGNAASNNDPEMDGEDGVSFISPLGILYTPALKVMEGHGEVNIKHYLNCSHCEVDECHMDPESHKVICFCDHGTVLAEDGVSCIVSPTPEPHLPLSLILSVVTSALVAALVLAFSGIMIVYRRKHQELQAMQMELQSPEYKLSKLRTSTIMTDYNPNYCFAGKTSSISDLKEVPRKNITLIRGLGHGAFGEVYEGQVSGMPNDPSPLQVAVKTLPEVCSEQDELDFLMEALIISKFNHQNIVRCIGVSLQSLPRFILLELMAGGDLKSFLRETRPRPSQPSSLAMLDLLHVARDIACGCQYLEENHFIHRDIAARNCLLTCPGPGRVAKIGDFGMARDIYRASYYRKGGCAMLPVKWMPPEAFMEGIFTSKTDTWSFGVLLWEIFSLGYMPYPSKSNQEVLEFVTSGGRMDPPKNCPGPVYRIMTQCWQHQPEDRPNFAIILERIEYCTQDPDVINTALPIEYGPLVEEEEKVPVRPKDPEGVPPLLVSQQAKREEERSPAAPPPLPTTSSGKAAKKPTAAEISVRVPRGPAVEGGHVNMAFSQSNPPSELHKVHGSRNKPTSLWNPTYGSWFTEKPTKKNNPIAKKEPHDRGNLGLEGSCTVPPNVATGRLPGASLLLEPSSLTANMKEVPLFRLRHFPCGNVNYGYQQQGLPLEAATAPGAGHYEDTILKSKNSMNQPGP
Chain of Tyrosine-protein kinase Fyn (Homo sapiens) (P06241 2-537 limits assumed): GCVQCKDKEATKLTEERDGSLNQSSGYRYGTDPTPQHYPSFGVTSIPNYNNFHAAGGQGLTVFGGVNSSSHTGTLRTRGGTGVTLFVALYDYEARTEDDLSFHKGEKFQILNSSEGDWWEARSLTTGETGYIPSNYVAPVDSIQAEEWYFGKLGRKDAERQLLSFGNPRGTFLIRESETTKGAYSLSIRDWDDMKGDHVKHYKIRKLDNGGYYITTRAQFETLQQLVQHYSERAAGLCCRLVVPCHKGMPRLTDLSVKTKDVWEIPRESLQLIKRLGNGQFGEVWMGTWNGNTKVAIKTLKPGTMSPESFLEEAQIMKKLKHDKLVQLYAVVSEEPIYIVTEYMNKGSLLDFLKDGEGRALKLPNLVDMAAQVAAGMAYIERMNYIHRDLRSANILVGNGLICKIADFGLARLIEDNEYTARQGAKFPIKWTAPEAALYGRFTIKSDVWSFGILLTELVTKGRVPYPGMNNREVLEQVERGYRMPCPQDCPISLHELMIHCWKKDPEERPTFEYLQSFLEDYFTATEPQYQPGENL
Chain of Cyclin-dependent kinase-like 3 (Homo sapiens) (Q8IVW4 whole entry, looked up): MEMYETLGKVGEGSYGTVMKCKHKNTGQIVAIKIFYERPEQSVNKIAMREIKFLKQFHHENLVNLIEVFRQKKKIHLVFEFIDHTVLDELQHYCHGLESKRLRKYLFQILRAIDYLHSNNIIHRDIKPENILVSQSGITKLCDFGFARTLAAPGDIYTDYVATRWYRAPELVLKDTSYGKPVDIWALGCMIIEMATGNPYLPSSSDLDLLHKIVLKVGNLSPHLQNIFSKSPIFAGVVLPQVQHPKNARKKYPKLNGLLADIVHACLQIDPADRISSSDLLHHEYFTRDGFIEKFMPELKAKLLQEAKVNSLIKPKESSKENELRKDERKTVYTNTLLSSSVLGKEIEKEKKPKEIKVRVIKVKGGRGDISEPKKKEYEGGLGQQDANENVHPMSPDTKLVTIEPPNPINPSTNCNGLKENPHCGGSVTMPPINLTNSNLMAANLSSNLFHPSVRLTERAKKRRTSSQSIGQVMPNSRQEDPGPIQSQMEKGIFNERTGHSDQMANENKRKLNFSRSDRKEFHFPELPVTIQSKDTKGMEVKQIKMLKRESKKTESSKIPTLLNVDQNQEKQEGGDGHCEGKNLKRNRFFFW

With `COc1cc(N(C)c2ccnc3ccc(C(F)(F)F)cc23)cc(OC)c1OC` the % binding [1] was 85%.
For `CN(C)CCOc1ccc(-c2nc(-c3ccncc3)c(-c3ccc4c(c3)CC/C4=N\O)[nH]2)cc1`, the % of control [2] was 19%.
Compound `CCn1c(-c2nc3cc(C(=O)N4CCCC(N)C4)ccc3n2C)cc2ccccc21` (configuration not stated) has an XC50 (OATP1B1 (SLCO1B1)) of over 50.1 µM.
In the case of `Nc1cnc(N2CCc3cc(S(=O)(=O)Nc4c(F)cc(Cl)cc4F)cc(N4CCCC4=O)c32)nc1` [TP-020n], the % of control [3] is reported as 100%, the % of control [4] is reported as 81% and the % of control [5] is reported as 100%. For the same compound, the % of control [6] was 100%.
In the case of `CCC(=O)N1CC[C@H](Nc2ncnc3c2CN(c2cnc(OC)c(C(F)(F)F)c2)CC3)C1` [LENIOLISIB], the % of inhibition [7] is reported as 98%.
`CCc1cc(Nc2nccc(-c3c(-c4ccc(OC)c(C(=O)Nc5c(F)cccc5F)c4)nc4ccccn34)n2)c(OC)cc1N1CCC(N2CCN(S(C)(=O)=O)CC2)CC1` showed a % of inhibition [8] of 39%.
`Cc1cc(CN)cc(C)c1-c1ncn(C)c1-c1cncn1C` showed a % activity ([9]; at 1 µM) of over 90% and a % activity ([9]; at 10 µM) of over 80%.
`CC[C@@H]1[C@H](F)C(=O)N[C@@H]1COc1nccc2cc(C(N)=O)c(OC)cc12` [ZIMLOVISERTIB] showed a % of inhibition [10] of 5.1%.
With `CNC(=O)Nc1ccc(-c2nc(N3CC4CCC(C3)O4)c3cnn(C4CCC5(CC4)OCCO5)c3n2)cc1` the % of inhibition [11] was 4%, the % of control [12] was 87% and the % of inhibition [13] was 2%.
`COc1cc(Nc2nc(C)cc(-c3cnn4nc(OC)ccc34)n2)cc(C(F)(F)F)c1` showed a % of control [14] of 87%.
For `CN(C)C/C=C/C(=O)Nc1ccc(C(=O)N2CCCC(Nc3ncc(Cl)c(-c4c[nH]c5ccccc45)n3)C2)cc1` (configuration not stated), the % of control [15] was 94%.
